Test [1] relates to HCT-116. The test is described as follows: Western blot analysis. In kind it is cell-based, human. To be noted: 100 ng/mL and 250 ng/mL IFN-γ. The procedure: (§1) Pyroptosis assay. Recombinant Human TNF-α (Cat #300-01A, PeproTech, Rocky Hill, NJ, USA) and Recombinant Human IFN-γ (Cat #300-02, PeproTech, Rocky Hill, NJ, USA) were purchased for use in western blot analysis while rhTRAIL was generated in-house. See Kim et al., J. Biol. Chem., 279, 40044-40052 (2004).
(§2) Western blot analysis. Cells were plated in a 6-well plate and incubated overnight before the spent media was replaced with drugged media. Drug treatment lasted for indicated durations. Protein was extracted using radioimmunoprecipitation (RIPA) assay buffer (Cat #R0278, Sigma-Aldrich, St. Louis, MO, USA) containing cOmplete™, Mini, EDTA-free Protease Inhibitor Cocktail (Cat #4693159001, Roche, Basel, Switzerland) from sub-confluent cells. Denaturing sample buffer was added, samples were boiled at 95° C. for ten minutes, and an equal amount of protein lysate was electrophoresed through NuPAGE™ 4 to 12%, bis-Tris, 1.5 mm, Mini Protein Gels (Invitrogen, Waltham, MA, USA) then transferred to PVDF membranes. The PVDF membrane was blocked with 5% non-fat milk (Sigma-Aldrich, St. Louis, MO, USA) in 1× TTBS. Primary antibodies were incubated with the transferred PVDF membrane in blocking buffer at 4° C. overnight. Secondary antibodies included Goat anti-Rabbit IgG (H+L) Secondary Antibody, HRP (Cat #31460, Invitrogen, Waltham, MA, USA), and Goat anti-Mouse IgG (H+L) Secondary Antibody, HRP (Cat #31430, Invitrogen, Waltham, MA, USA). The signal was detected using Pierce™ ECL Western Blotting Substrate (Cat #32106, Thermo Scientific, Waltham, MA, USA) and a Syngene Imaging System (RRID: SCR_015770).
(§3) Elraglusib uprequlates tumor cell PD-L1 and proapoptotic pathway expression as well as downregulates immunosuppressive/angiogenic protein expression and pro-survival pathways. The inventors performed Western blot analyses on colorectal cancer cells (HCT-116, HT-29) treated with elraglusib over a 72-hour time course. […] The inventors observed increases in PD-L1 expression as the treatment duration increased. To further elucidate the elraglusib-mediated effects on tumor cell survival, the inventors probed for survival factors Bcl-2 and Survivin and noted decreases in protein expression in both cell lines, especially at the later timepoints (forty-eight hours, seventy-two hours). […] HCT116 cells are heterozygous for β-catenin, harboring one wild-type allele and one mutant allele with inactivation of one of the residues phosphorylated by GSK-3β that is frequently mutated in tumors. Kaler, Augenlicht, & Klampfer, PLoS ONE, 7, e45462 (2012). HT-29, KM12C, and SW480 cells harbor APC mutations. Rowan et al., Proc. Natl. Acad. Sci. USA, 97, 3352 (2000).
(Immunoblotting shows a protein as a band on a membrane.)

Test [2] relates to HT-29. The test is described as follows: Western blot analysis. Format: cell-based, human. To be noted: 100 ng/mL and 250 ng/mL IFN-γ. The procedure:
as §1, §2, §3

Regarding “IFN-γ: Recombinant Human IFN-γ (PeproTech) used in western blot analysis”, the “gasdermin B expression” value in test [1] and in test [2] was “increase” in each case.

The values are drawn from US20240041830A1, “CIRCULATING BIOMARKERS OF RESPONSE TO PD-1/PD-L1 BLOCKADE AND GSK-3 INHIBITION” (Brown University, priority 2022, published 2024).
